Experimental data from US20210380545A1, “(S)-ENANTIOMERIC FORM OF A HETEROCYCLIC COMPOUND HAVING MOTIVATION IMPROVING AND/OR REFERENCE MEMORY ENHANCING ACTIVITY” (Red Bull GmbH, priority 2018, published 2021).
Read-outs that look alike come from different tables or passages of the source.

Legend:
[1] = system: Adult male Sprague-Dawley rats; settings: for chow intake vs vehicle treatment / lever pressing vs vehicle treatment: TBZ 1.0 mg/kg plus vehicle vs vehicle/vehicle
Experimental: Rats were assessed using the fixed ratio 5/chow feeding choice test.
Adult male Sprague-Dawley rats (Envigo Sprague Dawley, Indianapolis, Ind., USA; weights 275-299 g upon arrival) were pair-housed in a colony maintained at 23° C., with a 12-h light/dark cycle (lights on 07:00). Rats were food deprived to 85% of their free-feeding body weight for operant training and allowed modest growth throughout the experiment. Water was available ad libitum in the home cages.
Behavioural sessions were conducted in operant chambers (28×23×23 cm3; Med Associates, Fairfax, Vt.) with 30 minute sessions 5 days/week. Rats were initially trained to lever press on a continuous reinforcement FR1 schedule (high-carbohydrate 45 mg pellets, Bio-Serv, Frenchtown, N.J.) and then shifted to the FR5 schedule. After 5 weeks of training on the FR5 schedule, chow was introduced. Weighed amounts of laboratory chow (Laboratory Diet, 5P00 Prolab RMH 3000, Purina Mills, St. Louis, Mo.; typically 15-20 g) were concurrently available on the floor of the chamber during the FR5/chow feeding choice task sessions. At the end of each 30 minute session, rats were immediately removed from the chambers, number of lever presses was recorded, and the amount of chow consumed was determined by weighing the remaining food (including spillage). Rats were trained on the FR5/chow feeding choice procedure for 5 weeks, after which drug testing began. On baseline and drug treatment days, rats consumed all of the operant pellets that were delivered during each session.
The DMSO/Tween 80/saline solution was administered as the vehicle control. TBZ was obtained from Tocris Bioscience (Ellisville, Mo.) and was dissolved in DMSO, 0.9% saline, and titrated with HCl. The DMSO/saline solution was administered as the vehicle control. The TBZ dose was 1.0 mg/kg.
The experiment used a within-groups design, with each rat receiving each drug treatment in a randomly varied order (one treatment per week, with none of the treatment sequences repeated across different animals).
Total number of lever presses and gram quantity of chow intake from the 30 minute sessions were analysed using repeated measures ANOVA. […] When there was a significant ANOVA, non-orthogonal planned comparisons were performed, using the overall error term to assess differences between each treatment and the control condition.

[2] = target: T1, human dopamine transporter (DAT) (Homo sapiens, UniProt Q01959); assay: Reuptake inhibition assay, [3H]-dopamine uptake in HEK-DAT cells; assay type: cell-based
T1 construct: expressed in transfected cells

[3] = target: T2, human serotonin transporter (SERT) (Homo sapiens, UniProt P31645); assay: Reuptake inhibition assay, [3H]5-HT uptake in HEK-SERT cells; assay type: cell-based; settings: HEK293 cells expressing human SERT, 0.4 μM [3H]5-HT, 1 min
T2 construct: expressed in transfected cells

Male Sprague-Dawley rats = assay: Holeboard test (reference memory index, RMI); assay type: in vivo, rat
Experimental: Male Sprague-Dawley rats (17 to 18 weeks and 22 to 23 months old), bred and maintained in the Core Unit of Biomedical Research, Division of Laboratory Animal Science and Genetics, Medical University of Vienna were used. The animals were transferred to a separate experimental room one week before the start of the experimental procedure and kept there throughout the experiment individually in standard Makrolon cages filled with autoclaved woodchips temperature: 22±2° C.; humidity: 55±5%; 12 h artificial light/12 h dark cycle: light on at 7:00 am). The study was carried out according to the guidelines of the Ethics committee, Medical University of Vienna, and were approved by the Federal Ministry of Education, Science and Culture, Austria.
The holeboard (1 m×1 m) was made of black plastic and was surrounded by translucent plexiglass walls. The walls were equipped with spatial cues. Distal cues were provided by room structures outside the board. Four out of sixteen regularly arranged holes (diameter and depth 7 cm) were baited (dustless precision pellets, 45 mg, Bioserv®). The pattern of baited holes remained the same during the entire test. To avoid olfactory orientation pellets were also present in an area below the board. Prior to the experiment for three days the rats were handled for 15 min to get familiarized to the experimenter, followed by two days of habituation to the hole-board during which the animals could explore the maze for 15 min each day with access to food pellets. The weight of each rat was reduced by food restriction to reach 85% of its initial body weight before the start of the experiment. Tap water was given ad libitum. Rats were trained for three days (five trials on day one, four trials on day 2 and a retention trial at day 3). Every trial lasted for 120 s or until all four pellets were found. The apparatus was cleaned with 0.1% Incidin® (Ecolab, Dusseldorf, Germany) between trials to remove odor cues. The interval between two successive trials for an individual was 20 min. A camera mounted on the room ceiling recorded the performance of the rats in the maze. […] To compare rats with similar levels of motivation, rats with less than 40-hole visits in total over the ten trials were excluded from the analysis. Reference memory errors were noted as the number of visits to the unbaited holes. The Reference Memory Index (RMI) was calculated using the formula (first+revisits of baited holes)/total visits of all holes. All behavioral training/testing was performed during the light phase of the light-dark cycle.

[4] = target: T3, human nor-epinephrine transporter (NET) (Homo sapiens, UniProt P23975); assay: Reuptake inhibition assay, [3H]MPP+ uptake in HEK-NET cells; assay type: cell-based; settings: HEK293 cells expressing human NET, 0.05 μM [3H]MPP+, 3 min
T3 construct: expressed in transfected cells

[5] = p<0.001, listed as Tetrabenazine
[6] = HEK293 cells expressing human DAT, 0.2 μM [3H]-dopamine, 1 min, read-out: IC50, inhibition of DAT-mediated dopamine reuptake

T1 sequence (Q01959 whole entry): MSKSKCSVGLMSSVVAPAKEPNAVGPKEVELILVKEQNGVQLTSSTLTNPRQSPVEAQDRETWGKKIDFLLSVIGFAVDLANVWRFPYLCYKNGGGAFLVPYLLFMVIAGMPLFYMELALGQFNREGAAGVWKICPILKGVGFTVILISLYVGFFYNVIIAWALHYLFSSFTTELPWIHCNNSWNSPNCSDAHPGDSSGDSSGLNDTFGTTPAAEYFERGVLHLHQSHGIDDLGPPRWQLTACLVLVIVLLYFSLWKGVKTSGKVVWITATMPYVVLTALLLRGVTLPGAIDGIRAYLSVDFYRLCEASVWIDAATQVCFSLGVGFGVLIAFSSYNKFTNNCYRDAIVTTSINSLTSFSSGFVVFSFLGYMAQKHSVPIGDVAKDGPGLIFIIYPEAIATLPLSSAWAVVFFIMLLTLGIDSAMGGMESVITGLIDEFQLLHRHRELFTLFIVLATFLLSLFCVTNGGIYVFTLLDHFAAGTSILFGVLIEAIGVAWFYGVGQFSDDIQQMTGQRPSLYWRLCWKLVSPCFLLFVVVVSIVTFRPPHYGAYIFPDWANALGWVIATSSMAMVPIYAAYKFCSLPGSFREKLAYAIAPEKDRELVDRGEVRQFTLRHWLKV
T2 sequence (P31645 whole entry): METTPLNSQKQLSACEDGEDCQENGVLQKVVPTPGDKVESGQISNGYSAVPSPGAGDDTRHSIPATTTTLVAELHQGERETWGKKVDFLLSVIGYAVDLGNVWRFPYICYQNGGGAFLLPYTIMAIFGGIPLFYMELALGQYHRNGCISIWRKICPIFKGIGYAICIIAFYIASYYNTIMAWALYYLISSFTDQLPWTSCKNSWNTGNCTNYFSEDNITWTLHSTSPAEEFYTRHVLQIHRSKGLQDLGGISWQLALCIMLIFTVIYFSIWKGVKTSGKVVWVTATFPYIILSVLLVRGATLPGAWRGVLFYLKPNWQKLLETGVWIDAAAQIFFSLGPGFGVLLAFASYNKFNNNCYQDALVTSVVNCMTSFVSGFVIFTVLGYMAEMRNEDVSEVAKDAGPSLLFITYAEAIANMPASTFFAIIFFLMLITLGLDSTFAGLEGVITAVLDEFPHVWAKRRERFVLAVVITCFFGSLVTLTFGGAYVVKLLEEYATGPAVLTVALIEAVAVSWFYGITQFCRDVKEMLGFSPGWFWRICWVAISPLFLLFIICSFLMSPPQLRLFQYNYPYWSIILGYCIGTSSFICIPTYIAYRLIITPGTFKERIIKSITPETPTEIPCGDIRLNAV
T3 sequence (P23975 whole entry): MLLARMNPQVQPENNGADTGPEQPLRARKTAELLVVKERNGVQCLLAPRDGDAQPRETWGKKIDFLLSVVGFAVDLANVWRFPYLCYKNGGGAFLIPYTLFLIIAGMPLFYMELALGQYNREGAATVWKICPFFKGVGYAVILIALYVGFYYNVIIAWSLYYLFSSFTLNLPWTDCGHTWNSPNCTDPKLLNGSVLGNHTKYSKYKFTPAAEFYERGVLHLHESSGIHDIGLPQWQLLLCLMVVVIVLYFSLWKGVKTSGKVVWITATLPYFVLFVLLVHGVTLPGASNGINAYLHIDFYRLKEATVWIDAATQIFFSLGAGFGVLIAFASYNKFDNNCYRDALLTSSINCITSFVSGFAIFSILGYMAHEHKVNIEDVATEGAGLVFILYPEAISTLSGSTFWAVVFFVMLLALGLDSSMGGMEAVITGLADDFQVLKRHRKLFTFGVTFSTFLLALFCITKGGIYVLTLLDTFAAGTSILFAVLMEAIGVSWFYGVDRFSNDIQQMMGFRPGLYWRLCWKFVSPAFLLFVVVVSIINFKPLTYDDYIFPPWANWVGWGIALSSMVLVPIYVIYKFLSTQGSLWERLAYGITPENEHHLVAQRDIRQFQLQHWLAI

SMILES: COc1cc2c(cc1OC)C1CC(=O)C(CC(C)C)CN1CC2 (stereo not drawn) [TBZ, 9,10-dimethoxy-3-(2-methylpropyl)-1,3,4,6,7, 11b-hexahydrobenzo[a]quinolizin-2-one]
- chow intake vs vehicle treatment ([1]; p<0.001): significantly increased chow intake
- lever pressing vs vehicle treatment ([1]; p<0.001): significantly decreased lever pressing
- chow intake vs vehicle treatment [1, 5]: increased chow intake
- lever pressing vs vehicle treatment [1, 5]: decreased lever pressing

SMILES: [O-][S@+](Cc1cncs1)C(c1ccccc1)c1ccccc1 [Compound C2, (R)-5-(diphenylmethanesulfinylmethyl)-1,3-thiazole]
- IC50 [2, 6]: 22.3 µM

SMILES: [O-][S@@+](Cc1cncs1)C(c1ccccc1)c1ccccc1 [Compound C1, (S)-5((diphenylmethanesulfinyl)-methyl-1,3-thiazole)]
- inhibition of SERT [3]: negligible
- effect on TBZ-induced increase of chow intake ([1]; 24.0 mg/kg with TBZ 1.0 mg/kg vs TBZ/vehicle, 30 minute session, p<0.001): significantly attenuated the effects of TBZ
- effect on TBZ-induced decrease of lever pressing ([1]; 24.0 mg/kg with TBZ 1.0 mg/kg vs TBZ/vehicle, 30 minute session, p<0.01): significantly attenuated the effects of TBZ
- reversal of the effort-related effects of tetrabenazine ([1]; highest dose (24.0 mg/kg) co-administered with TBZ 1.0 mg/kg): partially but significantly reversed the effects of tetrabenazine
- Reference Memory Index (RMI) vs controls, entire training (Male Sprague-Dawley rats; old male rats (22 to 23 months), 10 mg/kg body weight, Tukey post hoc p=0.021): significantly enhanced RMI
- Reference Memory Index (RMI) vs controls, entire training (Male Sprague-Dawley rats; old male rats, 1 mg, p=0.357): performed similar as compared to controls
- Reference Memory Index (RMI) vs controls, entire training (Male Sprague-Dawley rats; old male rats, 5 mg, p=0.171): performed similar as compared to controls
- RMI vs vehicle, day 1 (Male Sprague-Dawley rats; old male rats, 10 mg, day 1, p=0.032): significantly enhanced RMI
- RMI vs vehicle, day 2 (Male Sprague-Dawley rats; old male rats, 10 mg, day 2, p<0.001): significant treatment effect
- RMI vs controls, retention trial at day 3 (Male Sprague-Dawley rats; old male rats, 10 mg, day 3, p=0.003): higher RMI
- inhibition of NET [4]: negligible
- IC50 [2]: 2.8 µM

SMILES: [O-][S+](Cc1cncs1)C(c1ccccc1)c1ccccc1 (racemic) [Compound C3, 5-(diphenylmethanesulfinylmethyl)-1,3-thiazole]
- IC50 [2, 6]: 4.6 µM
